Like-named read-outs stand apart in the source and are kept apart here.
Tests used:
hDAT = molecular target: T1, hDAT (Homo sapiens, UniProt Q01959); experiment: Inhibition of [125I]RTI-55 binding to hDAT in HEK293 cell membranes; conditions: [125I]RTI-55 displacement, HEK-hDAT membranes; IC50 converted to Ki (Cheng-Prusoff); read-out: Transporter DAT
T1 construct: expressed in transfected cells; host or cells: HEK293
Procedure: (§1) Unknowns are weighed and dissolved in DMSO to make a 10 mM stock solution. An initial dilution to 50 μM in assay buffer for binding, or to 1 mM in water for uptake, is made. Subsequent dilutions are made with assay buffer supplemented with DMSO, maintaining a final concentration of 0.1% DMSO. Pipetting is conducted using a Biomek 2000 robotic workstation.
(§2) Inhibition of Radioligand Binding of [125I]RTI-55 to hDAT, hSERT or hNET in Colonla Cells
(§3) Cell preparation: HEK293 cells expressing hDAT, hSERT or hNET inserts are grown to 80% confluence on 150 mm diameter tissue culture dishes and serve as the tissue source. Cell membranes are prepared as follows. Medium is poured off the plate, and the plate is washed with 10 ml of calcium- and magnesium-free phospate-buffered saline. Lysis buffer (10 ml; 2 mM HEPES with 1 mm EDTA) is added. After 10 min, cells are scraped from plates, poured into centrifuge tubes, and centrifuged […] for 20 min. The supernatant fluid is removed, and the pellet is resuspended in 12-32 ml of 0.32 m sucrose using a Ploytron at setting 7 for 10 sec. The resuspension volume depends on the density of binding sites within a cell line and is chosen to reflect binding of 10% or less to the total radioactivity.
(§4) Assay conditions: Each assay tube contains 50 μl of membrane preparation (about 10-15 μg of protein), 25 μl of unknown compound used to define non-specific binding, or buffer(Krebs-HEPES, pH 7.4;122 mM NaCl, 2.5 mM CaCl2, 1.2 mM MgSO4, 10 μM pargyline, 100 μM tropolone,0.2% glucose and 0.2% ascorbic acid, buffered with 25 mM HEPES) […] of [125I]RTI-55 (40-80 pM final concentration) and additional buffer sufficient to bring up the final volume to 250 μl. Membranes are preincubated with unknowns for 10 min prior to the addition of [125I]RTI-55. The assay tubes are incubated to 25° C. for 90 min. Binding is terminated by filtration over GF/F filters using Tomtec 96-well cell harvester. Fliter are washed for six seconds with ice cold saline. Scintillation fluid is added to each square and radioactivity remaining on the filter is determined using Wallac μ- or beta plate reader. Specific binding is defined as the difference in binding observed in the presence and absence of 5 μM mazindol (HEK-hDAT and HEK-hNET) or […] imipramine (HEK-hSERT). Two or three independent competition experiments are conducted with duplicate determinations. GraphPAD Prism is used to analyze the ensuing data, with IC50 values converted to Ki values using the Cheng-Prusoff equation (Ki=IC50/(1+([125I]RTI-55/KdRTI55))).

hSERT = molecular target: T2, hSERT (Homo sapiens, UniProt P31645); experiment: Inhibition of [125I]RTI-55 binding to hSERT in HEK293 cell membranes
T2 construct: expressed in transfected cells; host or cells: HEK293
T2 sequence (P31645 whole entry): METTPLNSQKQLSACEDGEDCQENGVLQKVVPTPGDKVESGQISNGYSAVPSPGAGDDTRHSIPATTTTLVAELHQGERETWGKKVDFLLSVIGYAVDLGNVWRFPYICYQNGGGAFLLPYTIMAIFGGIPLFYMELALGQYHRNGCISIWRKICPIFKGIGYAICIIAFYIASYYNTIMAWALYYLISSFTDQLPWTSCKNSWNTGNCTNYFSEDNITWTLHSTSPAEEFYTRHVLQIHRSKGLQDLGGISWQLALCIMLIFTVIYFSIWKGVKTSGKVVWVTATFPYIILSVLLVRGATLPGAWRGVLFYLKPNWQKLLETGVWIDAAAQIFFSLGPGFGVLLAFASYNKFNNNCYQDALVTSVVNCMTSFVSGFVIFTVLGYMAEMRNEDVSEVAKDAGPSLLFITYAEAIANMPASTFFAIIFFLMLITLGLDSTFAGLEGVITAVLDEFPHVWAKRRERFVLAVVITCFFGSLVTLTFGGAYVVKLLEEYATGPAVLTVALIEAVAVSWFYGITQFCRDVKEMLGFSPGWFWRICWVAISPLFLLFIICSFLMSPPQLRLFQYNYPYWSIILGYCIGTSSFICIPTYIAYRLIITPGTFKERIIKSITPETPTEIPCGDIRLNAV
Procedure: as §1, §2, §3, §4

hNET = molecular target: T3, hNET (Homo sapiens, UniProt P23975); experiment: Inhibition of [125I]RTI-55 binding to hNET in HEK293 cell membranes; conditions: [125I]RTI-55 displacement, HEK-hNET membranes; IC50 converted to Ki (Cheng-Prusoff); read-out: Transporter NET
T3 construct: expressed in transfected cells; host or cells: HEK293
T3 sequence (P23975 whole entry): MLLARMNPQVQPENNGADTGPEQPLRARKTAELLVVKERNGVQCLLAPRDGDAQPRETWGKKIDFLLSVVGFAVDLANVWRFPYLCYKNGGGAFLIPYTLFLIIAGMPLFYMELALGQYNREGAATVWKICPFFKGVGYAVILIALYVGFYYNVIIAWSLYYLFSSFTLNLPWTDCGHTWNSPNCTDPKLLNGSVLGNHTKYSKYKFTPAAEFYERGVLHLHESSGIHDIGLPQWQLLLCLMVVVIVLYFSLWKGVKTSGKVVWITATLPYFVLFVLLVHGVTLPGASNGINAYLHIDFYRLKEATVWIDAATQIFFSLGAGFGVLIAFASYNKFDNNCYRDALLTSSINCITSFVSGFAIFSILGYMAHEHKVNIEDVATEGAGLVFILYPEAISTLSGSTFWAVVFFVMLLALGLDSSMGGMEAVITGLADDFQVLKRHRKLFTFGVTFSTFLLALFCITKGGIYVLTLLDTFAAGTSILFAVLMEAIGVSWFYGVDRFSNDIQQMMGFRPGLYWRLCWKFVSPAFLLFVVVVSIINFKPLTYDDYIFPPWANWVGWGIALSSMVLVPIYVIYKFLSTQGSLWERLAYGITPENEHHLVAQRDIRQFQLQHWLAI
Procedure: as §1, §2, §3, §4

[1] = [125I]RTI-55 displacement, HEK-hSERT membranes, IC50 converted to Ki (Cheng-Prusoff), read-out: Transporter SERT

T1 sequence (Q01959 whole entry): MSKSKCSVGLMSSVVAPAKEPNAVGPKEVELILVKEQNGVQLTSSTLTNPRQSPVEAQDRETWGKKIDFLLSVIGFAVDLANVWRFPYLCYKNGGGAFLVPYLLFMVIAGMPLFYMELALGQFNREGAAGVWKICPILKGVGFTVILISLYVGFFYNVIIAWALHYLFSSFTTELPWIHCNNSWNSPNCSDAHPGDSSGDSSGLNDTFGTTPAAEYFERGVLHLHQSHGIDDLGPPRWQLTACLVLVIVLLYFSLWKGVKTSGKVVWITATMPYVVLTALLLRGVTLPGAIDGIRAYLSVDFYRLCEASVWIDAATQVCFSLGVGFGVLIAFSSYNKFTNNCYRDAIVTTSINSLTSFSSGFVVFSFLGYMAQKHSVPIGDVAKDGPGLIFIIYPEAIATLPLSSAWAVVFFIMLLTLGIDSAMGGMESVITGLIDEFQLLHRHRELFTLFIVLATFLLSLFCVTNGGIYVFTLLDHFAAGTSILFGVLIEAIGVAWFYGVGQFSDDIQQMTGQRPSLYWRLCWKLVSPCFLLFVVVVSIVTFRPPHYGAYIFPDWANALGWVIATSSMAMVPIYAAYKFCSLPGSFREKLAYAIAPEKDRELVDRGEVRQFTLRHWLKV

| Structure (SMILES) | Ki (hDAT) | Ki (hSERT; [1]) | Ki (hNET) | Ki (hSERT) |
| --- | --- | --- | --- | --- |
| CNC[C@@]1(c2ccccc2)C[C@@H]1c1ccc(Cl)c(Cl)c1 [32,219] | 218 nM | 114 nM | 1870 nM |  |
| CNC[C@]1(c2ccccc2)C[C@H]1c1ccc(Cl)c(Cl)c1 [32,220] | 1450 nM |  | 1460 nM | 45 nM |
| CNC[C@@]1(c2ccc(Cl)c(Cl)c2)C[C@@H]1c1ccccc1 [32,221] | 1380 nM | 1040 nM | 3130 nM |  |
| CNC[C@]1(c2ccc(Cl)c(Cl)c2)C[C@H]1c1ccccc1 [32,222] | 6600 nM | 4600 nM | > 10000 nM |  |
| CNC[C@]1(c2ccc(Cl)c(Cl)c2)C[C@H]1c1ccc(Cl)c(Cl)c1 [compound 32694] | 1260 nM | 1530 nM | 3700 nM |  |
| CNC[C@@]1(c2ccc(Cl)c(Cl)c2)C[C@@H]1c1ccc(Cl)c(Cl)c1 [compound 32695] | 730 nM | 172 nM | 2900 nM |  |
| CNC[C@]1(c2ccccc2)C[C@H]1c1ccccc1 [compound 32696] | 4650 nM | > 7300 nM | 4300 nM |  |
| CNC[C@@]1(c2ccccc2)C[C@@H]1c1ccccc1 [compound 32697] | > 5300 nM | > 10000 nM | 3900 nM |  |
| CNC[C@]1(c2ccccc2)C[C@H]1c1ccc2ccccc2c1 [compound 32698] | 1600 nM |  | 1270 nM | 14 nM |
